Experiments:
human PDE5 = target: T1, human PDE5 (Homo sapiens, UniProt O76074); assay: Inhibition of PDE5 activity (platelet lysate, SPA assay); type: biochemical; conditions: 0.5 μM cGMP, read-out: PDE5 Inhibitory values measured as -logIC50 (converted)
T1 construct: from tissue; host or cells: human platelets from fresh donor blood (platelet lysate)
How it was run: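 Human platelet lysate (10,000 g supernatant) served as PDE5 source, with 1 μM motapizone and 10 nM PDE2 inhibitor added, in Tris pH 7.4, 5 mM Mg2+, BSA. Substrate 0.5 μM [3H]cGMP, 10–20% conversion; 5 min preincubation then 15 min at 37 °C, stopped by SPA beads with IBMX. IC50 by non-linear regression.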

PDE4B1 = target: T2, PDE4B1 (Homo sapiens, UniProt Q07343); assay: Inhibition of PDE4 activity (PDE4B1, SPA assay); type: biochemical; conditions: recombinant PDE4B1, 0.5 μM cAMP; read-out: PDE4B1 Inhibitory values measured as -logIC50 (converted)
T2 construct: made in house; host or cells: SF21 insect cells (baculovirus; virus made in SF9 cells, pCR-Bac vector)
T2 sequence (Q07343 whole entry): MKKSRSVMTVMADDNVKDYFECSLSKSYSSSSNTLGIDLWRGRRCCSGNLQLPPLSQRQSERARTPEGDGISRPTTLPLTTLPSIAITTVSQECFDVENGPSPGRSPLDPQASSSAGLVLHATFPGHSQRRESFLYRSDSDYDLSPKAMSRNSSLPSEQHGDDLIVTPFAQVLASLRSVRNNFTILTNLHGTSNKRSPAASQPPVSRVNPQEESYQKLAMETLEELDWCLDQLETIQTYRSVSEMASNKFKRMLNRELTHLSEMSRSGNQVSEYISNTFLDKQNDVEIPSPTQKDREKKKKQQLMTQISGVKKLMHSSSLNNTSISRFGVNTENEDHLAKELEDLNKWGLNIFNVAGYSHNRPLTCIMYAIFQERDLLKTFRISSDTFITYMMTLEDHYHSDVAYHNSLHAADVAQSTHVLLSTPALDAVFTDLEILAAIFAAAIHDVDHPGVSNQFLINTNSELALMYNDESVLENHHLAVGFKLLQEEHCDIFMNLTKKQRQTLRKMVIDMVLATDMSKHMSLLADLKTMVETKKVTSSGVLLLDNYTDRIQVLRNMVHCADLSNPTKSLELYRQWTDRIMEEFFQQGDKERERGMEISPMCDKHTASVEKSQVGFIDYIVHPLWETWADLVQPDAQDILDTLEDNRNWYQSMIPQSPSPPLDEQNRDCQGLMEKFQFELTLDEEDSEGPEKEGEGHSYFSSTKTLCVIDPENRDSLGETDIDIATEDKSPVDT
How it was run: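 Baculovirus-expressed enzyme from SF21 cell 1000×g supernatant; substrate 0.5 μM [3H]cAMP in 20 mM Tris pH 7.4, 5 mM Mg2+, 0.1 mg/ml BSA, 10-20% conversion. 5 min preincubation at 37 °C, 15 min reaction, stopped by SPA beads with IBMX; IC50 by non-linear regression.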

Structure (SMILES)	IC50 (human PDE5)	IC50 (PDE4B1)
COc1ccc(C2=NN(C3CCN(C(=O)[C@@H](Cc4ccc(F)cc4)NC(=O)c4c[nH]c5c(-c6c(OCC7CC7)ccc7c6OCO7)ncnc45)CC3)C(=O)[C@@H]3CCCC[C@H]23)cc1OC [Example 28, 4-[5-(cyclopropylmethoxy)-1,3-benzodioxol-4-yl]-N-[(2R)-1-{4-[(4aS,8aR)-4-(3,4-dimethoxyphenyl)-1-oxo-4a,5,6,7,8,8a-hexahydrophthalazin-2(1H)-yl]piperidin-1-yl}-3-(4-fluorophenyl)-1-oxopropan-2-yl]-5H-pyrrolo[3,2-d]pyrimidine-7-carboxamide]	< 1 nM	< 1 nM
COc1cc(OCC2CC2)c(-c2ncnc3c(C(=O)N[C@H](Cc4ccccc4)C(=O)N4CCC(N5N=C(c6ccc(OC)c(OC)c6)CC(C)(C)C5=O)CC4)c[nH]c23)cc1F [Example 68, 4-[2-(cyclopropylmethoxy)-5-fluoro-4-methoxyphenyl]-N-[(2R)-1-{4-[3-(3,4-dimethoxyphenyl)-5,5-dimethyl-6-oxo-5,6-dihydropyridazin-1(4H)-yl]piperidin-1-yl}-1-oxo-3-phenylpropan-2-yl]-5H-pyrrolo[3,2-d]pyrimidine-7-carboxamide]	1 to 10 nM	1 to 10 nM
COc1ccc(C2=NN(C3CCN(C(=O)[C@@H](Cc4ccc(F)c(F)c4)NC(=O)c4c[nH]c5c(-c6c(OCC7CC7)ccc7c6OCO7)ncnc45)CC3)C(=O)[C@@H]3CCCC[C@H]23)cc1OC [Example 19, 4-[5-(cyclopropylmethoxy)-1,3-benzodioxol-4-yl]-N-[(2R)-3-(3,4-difluorophenyl)-1-{4-[(4aS,8aR)-4-(3,4-dimethoxyphenyl)-1-oxo-4a,5,6,7,8,8a-hexahydrophthalazin-2(1H)-yl]piperidin-1-yl}-1-oxopropan-2-yl]-5H-pyrrolo[3,2-d]pyrimidine-7-carboxamide]	1 to 10 nM	1 to 10 nM
COc1ccc(C2=NN(C3CCN(C(=O)[C@H](Cc4ccccc4)NC(=O)c4c[nH]c5c(-c6c(OCC7CC7)ccc7c6OCO7)ncnc45)CC3)C(=O)[C@@H]3CCCC[C@H]23)cc1OC [Example 36, 4-[5-(cyclopropylmethoxy)-1,3-benzodioxol-4-yl]-N-[(2S)-1-{4-[(4aS,8aR)-4-(3,4-dimethoxyphenyl)-1-oxo-4a,5,6,7,8,8a-hexahydrophthalazin-2(1H)-yl]piperidin-1-yl}-1-oxo-3-phenylpropan-2-yl]-5H-pyrrolo[3,2-d]pyrimidine-7-carboxamide]	1 to 10 nM	1 to 10 nM
COc1ccc(C2=NN(C3CCN(C(=O)[C@@H](Cc4ccccc4C(F)(F)F)NC(=O)c4c(C)[nH]c5c(-c6c(OCC7CC7)ccc7c6OCO7)ncnc45)CC3)C(=O)[C@@H]3CCCC[C@H]23)cc1OC [Example 32, 4-[5-(cyclopropylmethoxy)-1,3-benzodioxol-4-yl]-N-{(2R)-1-{4-[(4aS,8aR)-4-(3,4-dimethoxyphenyl)-1-oxo-4a,5,6,7,8,8a-hexahydrophthalazin-2(1H)-yl]piperidin-1-yl}-1-oxo-3-[2-(trifluoromethyl)phenyl]propan-2-yl}-6-methyl-5H-pyrrolo[3,2-d]pyrimidine-7-carboxamide]	1 to 10 nM	1 to 10 nM
COc1cc(OCC2CC2)c(-c2ncnc3c(C(=O)N[C@H](Cc4ccccc4)C(=O)N4CCC(N5N=C(c6ccc(OC)c(OC)c6)[C@H]6CCCC[C@H]6C5=O)CC4)c[nH]c23)cc1F [Example 23, 4-[2-(cyclopropylmethoxy)-5-fluoro-4-methoxyphenyl]-N-[(2R)-1-{4-[(4aS,8aR)-4-(3,4-dimethoxyphenyl)-1-oxo-4a,5,6,7,8,8a-hexahydrophthalazin-2(1H)-yl]piperidin-1-yl}-1-oxo-3-phenylpropan-2-yl]-5H-pyrrolo[3,2-d]pyrimidine-7-carboxamide]	1 to 10 nM	1 to 10 nM
COc1ccc(C2=NN(C3CCN(C(=O)[C@H](NC(=O)c4c[nH]c5c(-c6c(OCC7CC7)ccc7c6OCO7)ncnc45)[C@H](C)c4ccccc4)CC3)C(=O)[C@@H]3CCCC[C@H]23)cc1OC [Example 50, 4-[5-(cyclopropylmethoxy)-1,3-benzodioxol-4-yl]-N-[(2R,3R)-1-{4-[(4aS,8aR)-4-(3,4-dimethoxyphenyl)-1-oxo-4a,5,6,7,8,8a-hexahydrophthalazin-2(1H)-yl]piperidin-1-yl}-1-oxo-3-phenylbutan-2-yl]-5H-pyrrolo[3,2-d]pyrimidine-7-carboxamide]	1 to 10 nM	< 1 nM

The next lines start with the values.

IC50 (human PDE5)	IC50 (PDE4B1)	Structure (SMILES)
1 to 10 nM	1 to 10 nM	COc1ccc(C2=NN(C3CCN(C(=O)[C@H](Cc4ccccc4)NC(=O)c4c[nH]c5c(-c6c(OCC7CC7)ccc7c6OCO7)ncnc45)CC3)C(=O)C(C)(C)C2)cc1OC [Example 110, 4-[5-(cyclopropylmethoxy)-1,3-benzodioxol-4-yl]-N-[(2S)-1-{4-[3-(3,4-dimethoxyphenyl)-5,5-dimethyl-6-oxo-5,6-dihydropyridazin-1(4H)-yl]piperidin-1-yl}-1-oxo-3-phenylpropan-2-yl]-5H-pyrrolo[3,2-d]pyrimidine-7-carboxamide]
1 to 10 nM	1 to 10 nM	COc1ccc(C2=NN(C3CCN(C(=O)C[C@@H](Cc4ccccc4)NC(=O)c4c[nH]c5c(-c6c(OCC7CC7)ccc7c6OCO7)ncnc45)CC3)C(=O)C(C)(C)C2)cc1OC [Example 78, 4-[5-(cyclopropylmethoxy)-1,3-benzodioxol-4-yl]-N-[(2R)-4-{4-[3-(3,4-dimethoxyphenyl)-5,5-dimethyl-6-oxo-5,6-dihydropyridazin-1(4H)-yl]piperidin-1-yl}-4-oxo-1-phenylbutan-2-yl]-5H-pyrrolo[3,2-d]pyrimidine-7-carboxamide]
< 1 nM	1 to 10 nM	COc1ccc(C2=NN(C3CCN(C(=O)[C@H](CC4CCCCC4)NC(=O)c4c[nH]c5c(-c6c(OCC7CC7)ccc7c6OCO7)ncnc45)CC3)C(=O)C(C)(C)C2)cc1OC [Example 94, N-[(2S)-3-cyclohexyl-1-{4-[3-(3,4-dimethoxyphenyl)-5,5-dimethyl-6-oxo-5,6-dihydropyridazin-1(4H)-yl]piperidin-1-yl}-1-oxopropan-2-yl]-4-[5-(cyclopropylmethoxy)-1,3-benzodioxol-4-yl]-5H-pyrrolo[3,2-d]pyrimidine-7-carboxamide]
1 to 10 nM	1 to 10 nM	COc1ccc(C2=NN(C3CCN(C(=O)[C@@H](Cc4ccc(Br)cc4)NC(=O)c4c[nH]c5c(-c6c(OCC7CC7)ccc7c6OCO7)ncnc45)CC3)C(=O)[C@@H]3CCCC[C@H]23)cc1OC [Example 99, N-[(2R)-3-(4-bromophenyl)-1-{4-[(4aS,8aR)-4-(3,4-dimethoxyphenyl)-1-oxo-4a,5,6,7,8,8a-hexahydrophthalazin-2(1H)-yl]piperidin-1-yl}-1-oxopropan-2-yl]-4-[5-(cyclopropylmethoxy)-1,3-benzodioxol-4-yl]-5H-pyrrolo[3,2-d]pyrimidine-7-carboxamide]
< 1 nM	< 1 nM	COc1ccc(C2=NN(C3CCN(C(=O)[C@@H](Cc4ccc(F)cc4)NC(=O)c4c[nH]c5c(-c6c(OCC7CC7)ccc7c6OCO7)ncnc45)CC3)C(=O)C(C)(C)C2)cc1OC [Example 108, 4-[5-(cyclopropylmethoxy)-1,3-benzodioxol-4-yl]-N-[(2R)-1-{4-[3-(3,4-dimethoxyphenyl)-5,5-dimethyl-6-oxo-5,6-dihydropyridazin-1(4H)-yl]piperidin-1-yl}-3-(4-fluorophenyl)-1-oxopropan-2-yl]-5H-pyrrolo[3,2-d]pyrimidine-7-carboxamide]
1 to 10 nM	1 to 10 nM	COc1ccc(C2=NN(C3CCN(C(=O)[C@H](Cn4cccn4)NC(=O)c4c[nH]c5c(-c6c(OCC7CC7)ccc7c6OCO7)ncnc45)CC3)C(=O)[C@@H]3CCCC[C@H]23)cc1OC [Example 88, 4-[5-(cyclopropylmethoxy)-1,3-benzodioxol-4-yl]-N-[(2S)-1-{4-[(4aS,8aR)-4-(3,4-dimethoxyphenyl)-1-oxo-4a,5,6,7,8,8a-hexahydrophthalazin-2(1H)-yl]piperidin-1-yl}-1-oxo-3-(1H-pyrazol-1-yl)propan-2-yl]-5H-pyrrolo[3,2-d]pyrimidine-7-carboxamide]
1 to 10 nM	1 to 10 nM	COc1ccc(C2=NN(C3CCN(C(=O)[C@@H](CCC(=O)N4CCCC4)NC(=O)c4c[nH]c5c(-c6c(OCC7CC7)ccc7c6OCO7)ncnc45)CC3)C(=O)[C@@H]3CCCC[C@H]23)cc1OC [Example 105, 4-[5-(cyclopropylmethoxy)-1,3-benzodioxol-4-yl]-N-[(2R)-1-{4-[(4aS,8aR)-4-(3,4-dimethoxyphenyl)-1-oxo-4a,5,6,7,8,8a-hexahydrophthalazin-2(1H)-yl]piperidin-1-yl}-1,5-dioxo-5-(pyrrolidin-1-yl)pentan-2-yl]-5H-pyrrolo[3,2-d]pyrimidine-7-carboxamide]
1 to 10 nM	1 to 10 nM	COc1ccc(C2=NN(C3CCN(C(=O)[C@@H](CCC(=O)O)NC(=O)c4c[nH]c5c(-c6c(OCC7CC7)ccc7c6OCO7)ncnc45)CC3)C(=O)[C@@H]3CCCC[C@H]23)cc1OC [Example 101, (4R)-4-[({4-[5-(cyclopropylmethoxy)-1,3-benzodioxol-4-yl]-5H-pyrrolo[3,2-d]pyrimidin-7-yl}carbonyl)amino]-5-{4-[(4aS,8aR)-4-(3,4-dimethoxyphenyl)-1-oxo-4a,5,6,7,8,8a-hexahydrophthalazin-2(1H)-yl]piperidin-1-yl}-5-oxopentanoic acid]
